Measured values as given in patent US20230181536A1, “ANTICANCER COMBINATION THERAPY WITH N-(1-ACRYLOYL-AZETIDIN-3-YL)-2-((1H-INDAZOL-3-YL)AMINO)METHYL)-1H-IMIDAZOLE-5-CARBOXAMIDE INHIBITOR OF KRAS-G12C” (TAIHO PHARMACEUTICAL CO., LTD., priority 2020, published 2023).
pIC50: −log10 of the molar value.

Biological target: T1, KRAS G12C (Homo sapiens, UniProt P01116, G12C)
T1 construct: KRAS G12C (amino acid region: 1-169)
Experiment: Inhibitory activity on the KRAS G12C nucleotide (GDP-GTP) exchange reaction
Type: biochemical
Conditions: Bodipy FL GDP-bound KRAS G12C 25 nM; preincubation at 25° C. for 4 hours; SOS1 100 nM, GppNHp 1 μM, reaction for 30 minutes
Protocol: Test Example 2: Evaluation of Inhibitory Activity of Compounds on the KRAS G12C Nucleotide (GDP-GTP) Exchange Reaction
The inhibitory activity of compounds on the exchange reaction of GDP into GppNHp in Bodipy (trademark) FL-bound KRAS G12C was examined by fluorescence measurement using human recombinant KRAS G12C and SOS1 proteins.
For the preparation of KRAS G12C to which Bodipy FL GDP was bound, first, 50 µM KRAS G12C (amino acid region: 1-169) and 1 mM Bodipy FL GDP (Invitrogen, G22360) were incubated for 1 hour in a buffer (20 mM Tris-HCl (pH 7.5), 50 mM NaCl, 1 mM DTT) in ice in the presence of 2.5 mM EDTA. Thereafter, MgCl2 with a final concentration of 10 mM was added, and the mixture was incubated at room temperature for 30 minutes. The protein was allowed to pass through a NAP-5 column to remove free nucleotides and was used for compound evaluation.
For the measurement of the inhibitory activity of compounds on nucleotide exchange reaction, first, the compound of the disclosure was diluted stepwise with dimethyl sulfoxide (DMSO). Subsequently, a solution of the gradually diluted compound of the disclosure in DMSO (the final concentration of DMSO: 5%) and KRAS G12C (25 nM) bound to Bodipy FL GDP were added to a reaction buffer (20 mM Tris-HCl (pH 7.5), 100 mM NaCl, 1 mM MgCl2, 2 mM DTT, 0.1% Tween20), followed by preincubation at 25° C. for 4 hours. Thereafter, Son of Sevenless Homolog 1 (SOS1, amino acid region: 564-1049) and GppNHp (GMPPNP, Jena Bioscience GmbH, NU-401-50) were added such that their final concentration was 100 nM and 1 μM respectively, followed by reaction for 30 minutes. The change in fluorescence intensity of Bodipy FL (excitation wavelength: 485 nm, fluorescence wavelength: 520 nm) immediately after the start of reaction and after 30 minutes from the start of reaction was standardized. The signal value for only DMSO was determined to be 0% inhibition, and the signal value for no addition of GppNHp was determined to be 100% inhibition. The compound concentration at which 50% inhibition is achieved was determined to be the IC50 (nM) and was calculated.

T1 sequence (P01116 1-169 isoform P01116-2 G12C): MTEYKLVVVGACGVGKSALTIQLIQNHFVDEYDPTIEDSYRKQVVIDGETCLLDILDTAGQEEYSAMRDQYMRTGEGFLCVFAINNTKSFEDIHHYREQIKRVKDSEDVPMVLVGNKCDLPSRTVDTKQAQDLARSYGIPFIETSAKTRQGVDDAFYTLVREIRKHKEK

SMILES | pIC50
C=CC(=O)N1CC(NC(=O)c2c(C)nc(CNc3n[nH]c4cc(Cl)c(C(C)(C)C)cc34)n2CC)C1 [Example 12, N-(1-acryloylazetidin-3-yl)-2-(((5-(tert-butyl)-6-chloro-1H-indazol-3-yl)amino)methyl)-1-ethyl-4-methyl-1H-imidazole-5-carboxamide] | 7.80
C=CC(=O)N1CC(NC(=O)c2c(C)nc(CNc3n[nH]c4cc(Cl)c(C(C)(C)C)cc34)n2C(C)C)C1 [Example 13, N-(1-acryloylazetidin-3-yl)-2-(((5-(tert-butyl)-6-chloro-1H-indazol-3-yl)amino)methyl)-1-isopropyl-4-methyl-1H-imidazole-5-carboxamide] | 7.82
C=CC(=O)N1CC(NC(=O)c2c(C)nc(CNc3n[nH]c4cc(Cl)c(C(C)(C)C)cc34)n2CCOC)C1 [Example 14, N-(1-acryloylazetidin-3-yl)-2-(((5-(tert-butyl)-6-chloro-1H-indazol-3-yl)amino)methyl)-1-(2-methoxyethyl)-4-methyl-1H-imidazole-5-carboxamide] | 7.62
C=CC(=O)N1CC(NC(=O)c2c(C)nc(CNc3n[nH]c4cc(Cl)c(C(C)(C)C)cc34)n2Cc2ccccc2)C1 [Example 15, N-(1-acryloylazetidin-3-yl)-1-benzyl-2-(((5-(tert-butyl)-6-chloro-1H-indazol-3-yl)amino)methyl)-4-methyl-JH-imidazole-5-carboxamide] | 7.08
C=CC(=O)N1CC(NC(=O)c2c(C)nc(CNc3n[nH]c4cc(Cl)c(C(C)(C)C)cc34)n2CCN(C)C)C1 [Example 16, N-(1-acryloylazetidin-3-yl)-2-(((5-(tert-butyl)-6-chloro-1H-indazol-3-yl)amino)methyl)-1-(2-(dimethylamino)ethyl)-4-methyl-JH-imidazole-5-carboxamide] | 7.60
C=CC(=O)N1CC(NC(=O)c2c(C)nc(CNc3n[nH]c4cc(Cl)c(C(C)(C)C)cc34)n2C2CCCC2)C1 [Example 17, N-(1-acryloylazetidin-3-yl)-2-(((5-(tert-butyl)-6-chloro-1H-indazol-3-yl)amino)methyl)-1-cyclopentyl-4-methyl-JH-imidazole-5-carboxamide] | 7.77
C=CC(=O)N1CC(NC(=O)c2c(C)nc(CNc3n[nH]c4cc(Cl)c(C(C)(C)C)cc34)n2CCCC)C1 [Example 18, N-(1-acryloylazetidin-3-yl)-1-butyl 2-(((5-(tert-butyl)-6-chloro-JH-indazol-3-yl)amino)methyl)-4-methyl-JH-imidazole-5-carboxamide] | 7.92
C=CC(=O)N1CC(NC(=O)c2c(C)nc(CNc3n[nH]c4cc(Cl)c(C(C)(C)C)cc34)n2CCC)C1 [Example 19, N-(1-acryloylazetidin-3-yl)-2-(((5-(tert-butyl)-6-chloro-1H-indazol-3-yl)amino)methyl)-4-methyl-1-propyl-1H-imidazole-5-carboxamide] | 8.05
C=CC(=O)N1CC(NC(=O)c2c(C)nc(CNc3n[nH]c4cc(Cl)c(C(C)(C)C)cc34)n2C(C)CC)C1 (centres unmarked) [Example 20, N-(1-acryloylazetidin-3-yl)-1-(sec-butyl)-2-(((5-(tert-butyl)-6-chloro-1H-indazol-3-yl)amino)methyl)-4-methyl-1H-imidazole-5-carboxamide] | 7.51
C=CC(=O)N1CC(NC(=O)c2c(C)nc(CNc3n[nH]c4cc(Cl)c(C(C)(C)C)cc34)n2C(F)F)C1 [Example 21, N-(1-acryloylazetidin-3-yl)-2-(((5-(tert-butyl)-6-chloro-1H-indazol-3-yl)amino)methyl)-1-(difluoromethyl)-4-methyl-1H-imidazole-5-carboxamide] | 7.24
C=CC(=O)N1CC(NC(=O)c2c(C)nc(CNc3n[nH]c4cc(Cl)c(C(C)(C)C)cc34)n2CC(F)(F)F)C1 [Example 22, N-(1-acryloylazetidin-3-yl)-2-(((5-(tert-butyl)-6-chloro-1H-indazol-3-yl)amino)methyl)-4-methyl-1-(2,2,2-trifluoroethyl)-1H-imidazole-5-carboxamide] | 7.26
C=CC(=O)N1CC(NC(=O)c2c(C)nc(CNc3n[nH]c4cc(Cl)c(C(C)(C)C)cc34)n2C2CC2)C1 [Example 23, N-(1-acryloylazetidin-3-yl)-2-(((5-(tert-butyl)-6-chloro-1H-indazol-3-yl)amino)methyl)-1-cyclopropyl-4-methyl-1H-imidazole-5-carboxamide] | 8.15
C=CC(=O)N1CC(NC(=O)c2c(C)nc(CNc3n[nH]c4cc(Cl)c(C(C)(C)C)cc34)n2C(C)(C)C)C1 [Example 24, N-(1-acryloylazetidin-3-yl)-1-(tert-butyl)-2-(((5-(tert-butyl)-6-chloro-1H-indazol-3-yl)amino)methyl)-4-methyl-1H-imidazole-5-carboxamide] | 7.46
C=CC(=O)N1CC(NC(=O)c2c(C(F)(F)F)nc(CNc3n[nH]c4cc(Cl)c(C(C)(C)C)cc34)n2C)C1 [Example 25, N-(1-acryloylazetidin-3-yl)-2-(((5-(tert-butyl)-6-chloro-1H-indazol-3-yl)amino)methyl)-1-methyl-4-(trifluoromethyl)-1H-imidazole-5-carboxamide] | 6.79
C=CC(=O)N1CC(NC(=O)c2c(I)nc(CNc3n[nH]c4cc(Cl)c(C(C)(C)C)cc34)n2C)C1 [Example 26, N-(1-acryloylazetidin-3-yl)-2-(((5-(tert-butyl)-6-chloro-1H-indazol-3-yl)amino)methyl)-4-iodo-1-methyl-1H-imidazole-5-carboxamide] | 7.16
C=CC(=O)N1CC(NC(=O)c2c(Br)nc(CNc3n[nH]c4cc(Cl)c(C(C)(C)C)cc34)n2C)C1 [Example 27, N-(1-acryloylazetidin-3-yl)-4-bromo-2-(((5-(tert-butyl)-6-chloro-1H-indazol-3-yl)amino)methyl)-1-methyl-1H-imidazole-5-carboxamide] | 8.10
C=CC(=O)N1CC(NC(=O)c2c(C#N)nc(CNc3n[nH]c4cc(Cl)c(C(C)(C)C)cc34)n2C)C1 [Example 28, N-(1-acryloylazetidin-3-yl)-2-(((5-(tert-butyl)-6-chloro-1H-indazol-3-yl)amino)methyl)-4-cyano-1-methyl-1H-imidazole-5-carboxamide] | 7.15
C=CC(=O)N1CC(NC(=O)c2c(Cl)nc(CNc3n[nH]c4cc(Cl)c(C(C)(C)C)cc34)n2C)C1 [Example 29, N-(1-acryloylazetidin-3-yl)-2-(((5-(tert-butyl)-6-chloro-1H-indazol-3-yl)amino)methyl)-4-chloro-1-methyl-1H-imidazole-5-carboxamide] | 8.22
C=CC(=O)N1CC(NC(=O)c2c(F)nc(CNc3n[nH]c4cc(Cl)c(C(C)(C)C)cc34)n2C)C1 [Example 30, N-(1-acryloylazetidin-3-yl)-2-(((5-(tert-butyl)-6-chloro-1H-indazol-3-yl)amino)methyl)-4-fluoro-1-methyl-1H-imidazole-5-carboxamide] | 7.96
C=CC(=O)N1CC(NC(=O)c2c(CC)nc(CNc3n[nH]c4cc(Cl)c(C(C)(C)C)cc34)n2C)C1 [Example 31, N-(1-acryloylazetidin-3-yl)-2-(((5-(tert-butyl)-6-chloro-1H-indazol-3-yl)amino)methyl)-4-ethyl-1-methyl-1H-imidazole-5-carboxamide] | 6.19
C=CC(=O)N1CC(NC(=O)c2c(C(F)(F)F)nc(CNc3n[nH]c4cc(Cl)c(C(C)(C)C)cc34)n2C(C)C)C1 [Example 32, N-(1-acryloylazetidin-3-yl)-2-(((5-(tert-butyl)-6-chloro-1H-indazol-3-yl)amino)methyl)-1-isopropyl-4-(trifluoromethyl)-1H-imidazole-5-carboxamide] | 7.30
C=CC(=O)N1CC(NC(=O)c2c(C(F)F)nc(CNc3n[nH]c4cc(Cl)c(C(C)(C)C)cc34)n2C(C)C)C1 [Example 33, N-(1-acryloylazetidin-3-yl)-2-(((5-(tert-butyl)-6-chloro-1H-indazol-3-yl)amino)methyl)-4-(difluoromethyl)-1-isopropyl-1H-imidazole-5-carboxamide] | 7.89
C=CC(=O)N1CC(NC(=O)c2c(F)nc(CNc3n[nH]c4cc(Cl)c(C(C)(C)C)cc34)n2C(C)C)C1 [Example 34, N-(1-acryloylazetidin-3-yl)-2-(((5-(tert-butyl)-6-chloro-1H-indazol-3-yl)amino)methyl)-4-fluoro-1-isopropyl-1H-imidazole-5-carboxamide] | 7.89
